Several values for one entry are separate records, joined by “and”; a condition that tells them apart may be missing. Identical values can stand only once. Toxic doses and inconclusive results are not listed. The calls were made as follows: active = survival T/C of 150% or more; inactive = T/C below 125% in these data. Square brackets hold non-standard residues; d marks the D form. Peptide text beside a SMILES is read from it. ξ: configuration not given here. ξE = NC(CCC(=O)O)C(=O)O
Test system: BDF1 mice, B16 melanoma ip, median survival T/C
Experiment: NCI In Vivo Anticancer Drug Screen. Data for tumor model B16 Melanoma (intraperitoneal) in B6D2F1 (BDF1) mice
Conditions: endpoint: median survival time, higher = longer survival
Method in brief: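 Compounds were tested in mice carrying transplantable tumors. Survival or tumor size was recorded, and each value is the treated-group measurement (T) divided by that of the vehicle-treated control group (C).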

[1] = dose: 100.0 mg/kg/injection, schedule: Q01DX009 (ip), vehicle: Klucel (hydroxypropylcellulose) (HPC)
[2] = dose: 100.0 mg/kg/injection, schedule: Q04DX003 (ip), vehicle: saline with Tween-80
[3] = dose: 200.0 mg/kg/injection, schedule: Q01DX009 (ip), vehicle: Klucel (hydroxypropylcellulose) (HPC)
[4] = dose: 200.0 mg/kg/injection, schedule: Q04DX003 (ip), vehicle: saline with Tween-80
[5] = dose: 3.0 mg/kg/injection, schedule: Q01DX009 (ip), vehicle: saline with Tween-80
[6] = dose: 25.0 mg/kg/injection, schedule: Q01DX009 (ip), vehicle: Klucel (hydroxypropylcellulose) (HPC)
[7] = dose: 50.0 mg/kg/injection, schedule: Q01DX009 (ip), vehicle: Klucel (hydroxypropylcellulose) (HPC)
[8] = dose: 100.0 mg/kg/injection, schedule: Q04DX003 (ip), vehicle: Klucel (hydroxypropylcellulose) (HPC)
[9] = dose: 50.0 mg/kg/injection, schedule: Q01DX009 (ip), vehicle: saline
[10] = dose: 100.0 mg/kg/injection, schedule: Q01DX009 (ip), vehicle: saline
[11] = dose: 400.0 mg/kg/injection, schedule: Q01DX009 (ip), vehicle: saline
[12] = dose: 12.5 mg/kg/injection, schedule: Q01DX009 (ip), vehicle: Klucel (hydroxypropylcellulose) (HPC)
[13] = dose: 12.5 mg/kg/injection, schedule: Q01DX009 (ip), vehicle: saline with Tween-80
[14] = dose: 25.0 mg/kg/injection, schedule: Q01DX009 (ip), vehicle: saline with Tween-80
[15] = dose: 200.0 mg/kg/injection, schedule: Q04DX003 (ip), vehicle: Klucel (hydroxypropylcellulose) (HPC)
[16] = dose: 400.0 mg/kg/injection, schedule: Q04DX003 (ip), vehicle: Klucel (hydroxypropylcellulose) (HPC)
[17] = dose: 6.25 mg/kg/injection, schedule: Q01DX009 (ip), vehicle: saline with Tween-80
[18] = dose: 50.0 mg/kg/injection, schedule: Q01DX009 (ip), vehicle: saline with Tween-80
[19] = dose: 100.0 mg/kg/injection, schedule: Q01DX009 (ip), vehicle: saline with Tween-80
[20] = dose: 400.0 mg/kg/injection, schedule: Q01DX009 (ip), vehicle: Klucel (hydroxypropylcellulose) (HPC)

Measured: T/C

CCN1/C(=C/C(C)=C/c2sc3ccccc3[n+]2CC)Sc2ccccc21
inactive: dose: 0.03 mg/kg/injection, schedule: Q01DX009 (ip), vehicle: saline with Tween-80 104 % of control | dose: 0.05 mg/kg/injection, schedule: Q01DX009 (ip), vehicle: saline with Tween-80 100 % of control | dose: 0.1 mg/kg/injection, schedule: Q01DX009 (ip), vehicle: saline with Tween-80 100 % of control

NC(=O)Oc1ccccc1
inactive: [1] 100 % of control | [2] 106 % of control | [3] 100 % of control | [4] 113 % of control | dose: 400.0 mg/kg/injection, schedule: Q04DX003 (ip), vehicle: saline with Tween-80 110 % of control

O=c1[nH]c2ccccc2nc1CBr
inactive: dose: 0.38 mg/kg/injection, schedule: Q01DX009 (ip), vehicle: saline with Tween-80 104 % of control | dose: 0.75 mg/kg/injection, schedule: Q01DX009 (ip), vehicle: saline with Tween-80 100 % of control | dose: 1.5 mg/kg/injection, schedule: Q01DX009 (ip), vehicle: saline with Tween-80 104 % of control | [5] 92 % of control

[Cl][Ge]([Cl])([c]1ccccc1)[c]1ccccc1
inactive: [6] 93 % of control | [7] 100 % of control

O=[N+]([O-])c1cccs1
inactive: dose: 25.0 mg/kg/injection, schedule: Q04DX003 (ip), vehicle: Klucel (hydroxypropylcellulose) (HPC) 105 % of control | dose: 50.0 mg/kg/injection, schedule: Q04DX003 (ip), vehicle: Klucel (hydroxypropylcellulose) (HPC) 105 % of control | [8] 112 % of control

NCC(=O)NCC(=O)NC(CCC(=O)O)C(=O)O (stereo not drawn) (H-Gly-Gly-[ξE]-OH)
inactive: [9] 101 % of control | [10] 97 % of control | dose: 200.0 mg/kg/injection, schedule: Q01DX009 (ip), vehicle: saline 94 % of control | [11] 94 % of control

CC1=CC(C)(C)Nc2ccc(CSc3ccccc3)cc21
inactive: dose: 12.5 mg/kg/injection, schedule: Q01DX009 (ip), vehicle: saline + Tween-80 + alcohol 112 % of control | dose: 25.0 mg/kg/injection, schedule: Q01DX009 (ip), vehicle: saline + Tween-80 + alcohol 117 % of control | dose: 50.0 mg/kg/injection, schedule: Q01DX009 (ip), vehicle: saline + Tween-80 + alcohol 111 % of control | dose: 100.0 mg/kg/injection, schedule: Q01DX009 (ip), vehicle: saline + Tween-80 + alcohol 96 % of control

O=[N+]([O-])c1ccc([I+]c2ccccc2)cc1
inactive: [12] 115 % of control | [13] 113 % of control | [6] 118 % of control | [14] 112 % of control

CC(Cc1ccccc1)NN (stereo not drawn)
inactive: dose: 0.97 mg/kg/injection, schedule: Q01DX009 (ip), vehicle: saline 110 % of control | dose: 1.95 mg/kg/injection, schedule: Q01DX009 (ip), vehicle: saline 112 % of control | dose: 3.9 mg/kg/injection, schedule: Q01DX009 (ip), vehicle: saline 102 % of control | dose: 7.81 mg/kg/injection, schedule: Q01DX009 (ip), vehicle: saline 112 % of control

O=c1[nH]c2c(ccc3cnccc32)c2c1CCC2
inactive: dose: 3.12 mg/kg/injection, schedule: Q01DX009 (ip), vehicle: suspension in saline 97 % of control | dose: 6.25 mg/kg/injection, schedule: Q01DX009 (ip), vehicle: suspension in saline 104 % of control

N#CCCCc1ccccc1
inactive: [7] 112 % of control | [1] 106 % of control

OCc1cc2ccccc2[nH]1
inactive: [8] 112 % of control | [15] 110 % of control | [16] 106 % of control

CCOc1ccc(C(C)c2cc3c(cc2OC)OCO3)cc1 (stereo not drawn)
inactive: dose: 12.5 mg/kg/injection, schedule: Q01DX009 (ip), vehicle: distilled water + Tween-80 114 % of control | dose: 25.0 mg/kg/injection, schedule: Q01DX009 (ip), vehicle: distilled water + Tween-80 113 % of control

Cc1nn(C2CC(O)C(O)C(CO)O2)c(=O)[nH]c1=O (stereo not drawn)
inactive: [9] 95 % of control | [10] 86 % of control | [11] 86 % of control

C[As](C)Sc1ccnc(S[As](C)C)n1
inactive: [7] 100 % of control | [1] 119 % of control

CC(C)OCCS(=O)(=O)Oc1ncc(Cl)cc1Cl
inactive: [2] 100 % of control | [4] 93 % of control

CC(=N\O)/C(C)=N/O.CC(=N\O)/C(C)=N/O.[Ni]
inactive: [5] 93 % of control | dose: 6.0 mg/kg/injection, schedule: Q01DX009 (ip), vehicle: saline with Tween-80 87 % of control

O=C(/C(=N\Nc1ccc([N+](=O)[O-])cc1)c1ccccc1)c1ccccc1
inactive: dose: 3.13 mg/kg/injection, schedule: Q01DX009 (ip), vehicle: saline with Tween-80 100 % of control | [17] 95 % of control | [13] 90 % of control and 93 % of control | [18] 90 % of control

BrCCCC1CCCCC1
inactive: [7] 92 % of control | [1] 100 % of control | [3] 92 % of control

CC(=O)C1=C(C)NC(C)=C(C(C)=O)C1C
inactive: [18] 100 % of control | [19] 95 % of control | dose: 200.0 mg/kg/injection, schedule: Q01DX009 (ip), vehicle: saline with Tween-80 102 % of control

C=CCNC(=S)Nc1cc(Cl)ccc1OC
inactive: [1] 93 % of control | [3] 93 % of control | [20] 93 % of control

CC(=O)[O][Pb]([O]C(C)=O)([c]1ccccc1)[c]1ccccc1
inactive: dose: 6.25 mg/kg/injection, schedule: Q01DX009 (ip), vehicle: Klucel (hydroxypropylcellulose) (HPC) 98 % of control | [12] 99 % of control | [6] 103 % of control | [7] 95 % of control

CN1CCN=C(c2ccccc2)c2cc(Cl)ccc21
inactive: dose: 6.25 mg/kg/injection, schedule: Q01DX009 (ip), vehicle: saline 117 % of control | dose: 12.5 mg/kg/injection, schedule: Q01DX009 (ip), vehicle: saline 117 % of control | dose: 25.0 mg/kg/injection, schedule: Q01DX009 (ip), vehicle: saline 115 % of control | [9] 106 % of control | [10] 100 % of control

COC(=O)C1CC(C)(C)N(C)C1(C)C (stereo not drawn)
inactive: [7] 93 % of control | [1] 94 % of control

O=Cc1ccc([N+](=O)[O-])s1
inactive: dose: 3.12 mg/kg/injection, schedule: Q01DX009 (ip), vehicle: saline with Tween-80 99 % of control | [17] 96 % of control | [13] 96 % of control | [14] 86 % of control

COc1cc(C(O)C(Cl)(Cl)Cl)ccc1O (stereo not drawn)
inactive: dose: 100.0 mg/kg/injection, schedule: Q01DX009 (ip), vehicle: other 94 % of control | dose: 200.0 mg/kg/injection, schedule: Q01DX009 (ip), vehicle: other 91 % of control

CCOC(=O)C(CC)(CCC(C)C)C(=O)OCC
inactive: [14] 102 % of control | [18] 99 % of control | [19] 97 % of control

Cc1ccc(NC(=S)NC(Cc2ccccc2)c2ccccc2)c(C)c1 (stereo not drawn)
inactive: [12] 111 % of control | [6] 109 % of control | [7] 102 % of control | dose: 75.0 mg/kg/injection, schedule: Q04DX003 (ip), vehicle: Klucel (hydroxypropylcellulose) (HPC) 94 % of control | [1] 88 % of control | dose: 150.0 mg/kg/injection, schedule: Q04DX003 (ip), vehicle: Klucel (hydroxypropylcellulose) (HPC) 94 % of control | dose: 300.0 mg/kg/injection, schedule: Q04DX003 (ip), vehicle: Klucel (hydroxypropylcellulose) (HPC) 102 % of control

Nc1ncnc2c1ccn2C1OC2COP(=O)(O)OC2C1O (stereo not drawn)
inactive: dose: 1.0 mg/kg/injection, schedule: Q01DX009 (ip), vehicle: saline 116 % of control | dose: 4.0 mg/kg/injection, schedule: Q01DX009 (ip), vehicle: saline 111 % of control

C1CC[N-]CC1.C1CC[N-]CC1.CS(C)=O.[Cl][Rh]([Cl])[Cl]
inactive: dose: 5.0 mg/kg/injection, schedule: Q01DX009 (ip), vehicle: saline with Tween-80 99 % of control | dose: 10.0 mg/kg/injection, schedule: Q01DX009 (ip), vehicle: saline with Tween-80 95 % of control

CCCC(CCC)(C(=O)OCC)C(=O)OCC
inactive: [1] 92 % of control | [8] 105 % of control | [3] 96 % of control | [15] 97 % of control | [20] 92 % of control | [16] 91 % of control

COc1c([N+](=O)[O-])cc(C(=O)O)cc1[N+](=O)[O-]
inactive: [1] 92 % of control | [3] 92 % of control
